The values that follow come from article PMC12035931, “Biologically active withanolides from Physalis peruviana” (Pharmaceutical Biology, 2025).

Read-outs that look alike come from different tables or passages of the source.

Series [1] concerns TNF-α-induced NF-κB activity. The series can be described thus: Inhibition of TNF-α-activated NF-κB, luciferase reporter assay in HEK293 cells. The class given is cell-based, human. Particulars: for inhibition at 50 µM / IC50: Homo sapiens; for inhibition at 50 µM: read-out: NF-κB assay % inhib. An excerpt:
To study the inhibition of tumor necrosis factor-alpha (TNF-α)-induced activation of nuclear factor-kappa B (NF-κB), human embryonic kidney 293 cells (HEK293) stably transfected with an NF-κB-responsive luciferase reporter construct (Cat. No. RC0014, Panomics, Fremont, CA, USA) were utilized, following previously described protocols (Kondratyuk et al. [2012]). This cell line incorporates a chromosomally integrated luciferase reporter, which produces luciferase enzyme upon NF-κB activation. The enzyme reacts with its substrate to produce a luminescent signal, detectable via luminometry. Cells were seeded at a density of 2 × 10^4 cells/mL in 96-well plates and cultured in Dulbecco’s Modified Eagle Medium (DMEM, Cat. No. D6429, Sigma-Aldrich, Saint Louis, MO, USA) supplemented with 10% fetal bovine serum (FBS, Cat. No. A5670701, Gibco™, Thermo Fisher Scientific, Waltham, MA, USA). The medium also contained 100 µg/mL streptomycin sulfate and 100 IU/mL penicillin G (Cat. No.15140 Gibco BRL, Grand Island, NY, USA). The cells were then treated with varying concentrations of the test sample and stimulated with recombinant human TNF-α (2 ng/mL, Cat. No. HZ-1014, Proteintech Group, Inc. Rosemont, IL, USA).
Following a 6-hour incubation, the cells were rinsed with phosphate buffer saline (PBS), lysed with 40 μL of 1X Reporter Lysis Buffer (Cat. No. E2661, Promega, Madison, WI, USA), and subjected to a freeze-thaw cycle (−80 °C/37 °C). Luminescence, generated by the luciferase reaction, was quantified using the Luc assay system (Cat. No. N1610, Promega, Madison, WI, USA) and a LUMIstar Galaxy luminometer (BMG, Offenburg, Germany).
On the technique in general: A reporter such as luciferase makes a cellular process visible.

Series [2] deals with human embryonic kidney 293 cells (HEK293). Briefly: Cell survival in the NF-κB assay. The class given is cell-based.
Series [3] deals with NO production in LPS-activated murine macrophage RAW 264.7 cells. Briefly: cells. The class given is cell-based, mouse. Particulars: for inhibition at 50 µM / IC50: Mus musculus; for inhibition at 50 µM: read-out: Nitrite assay % inhib.; for NO inhibitory activity: compared with positive control L-NMMA / within the series. The procedure:
The inhibition of nitric oxide (NO) production in lipopolysaccharide (LPS)-stimulated murine macrophage RAW 264.7 cells was evaluated following previously described methods (Min et al. [2009]). RAW 264.7 cell line was purchased from ATCC (Cat. No. TIB-71, Manassas, VA, USA) and cultured in Dulbecco’s modified Eagle’s medium (DMEM, Cat. No. 12800-082, Invitrogen, Massachusetts, USA) supplemented with 10% heat-inactivated fetal bovine serum (FBS, Cat. No. 26140, Gibco BRL Co, Grand Island, NY, USA), 100× penicillin G and streptomycin (Cat. No.11074440001, Sigma-Aldrich, Saint Louis, MO, USA) and 2 mM L-glutamine (Cat. No. 25030, Gibco BRL Co, Grand Island, NY, USA). Cells were seeded at 10 × 10^5 cells per well in 96-well plates and incubated for 24 h at 37 °C in a humidified atmosphere containing 5% CO2.
(§1) Test compounds were dissolved in phenol red-free DMEM (Cat. No. 12-917 F, Lonza, Massachusetts, USA) and added to the cells as a pretreatment for 30 min. The cells were then exposed to LPS (1 µg/mL, Cat. No. L-2762, Sigma-Aldrich, Saint Louis, MO, USA) for 20 h. Nitric oxide levels were quantified using the Griess reagent, which consists of a 1:1 (v/v) mixture of 1% sulfanilamide (Cat.No. A13001, Alfa Aesar, Massachusetts, USA) in H3PO4 and N-(1-naphthyl)ethylenediamine dihydrochloride (Cat. No. 102397, MP Biomedicals, USA). A standard curve was generated using sodium nitrite (Cat. No. 44227, Alfa Aesar, Massachusetts, USA), and IC50 values were calculated using Table Curve 2D software (Version 4.07, AISN Software Inc., Richmond, VA, USA). Also, a sulforhodamine B (SRB, Cat. No. S9012, Sigma-Aldrich, Saint Louis, MO, USA) assay was performed to assess the cytotoxic effects of the test compounds on RAW 264.7 cells.

Series [4] in a line: SRB cytotoxicity / survival of RAW 264.7 cells in the nitrite assay. Format: cell-based, mouse. Conditions: mouse; cytotoxicity in RAW 264.7 cells, NO assay; read-out: cytotoxic IC50. The procedure:
as §1

Series [5] concerns RAW 264.7 cells. The description is as above. The class given is cell-based, mouse. Particulars: for Nitrite assay % surv.: % survival at a concentration of 50 μM, RAW 264.7. The procedure: as §1
For series [6], the system named is NO-production in LPS-stimulated RAW 264.7 cells. The arrangement: method as in Choudhari et al. [2013]; Park et al. [2019]. Particulars: ref Choudhari et al. [2013], Park et al. [2019], read-out: NO-production IC50 (literature); cited from earlier work.
Setting [7] is: HEK293, % inhibition at a concentration of 50 μM, TNF-α 2 ng/mL, 6 h.
[8] abbreviates: TNF-α-induced NF-κB luciferase, HEK293, read-out: NF-κB assay IC50.
[9] abbreviates: RAW264.7, read-out: Nitrite assay IC50.
Where [10] appears, read: HEK293, read-out: NF-κB assay IC50.
Where [11] appears, read: acetate versus parent, from IC50.
The mark [12] stands for this setting: % survival at a concentration of 50 μM.
The mark [13] stands for this setting: RAW264.7, % inhibition of NO at 50 μM, LPS 1 µg/mL, 20 h.
The mark [14] stands for this setting: RAW264.7, LPS-activated RAW 264.7 cells, read-out: Nitrite assay IC50.

As a reminder, the IC50 is the concentration that inhibits the measured activity by half. Regarding `CC1=C(C)C(=O)OC([C@](C)(O)[C@]2(O)CC[C@@]3(O)C4C[C@H]5O[C@]56[C@@H](O)C=CC(=O)[C@]6(C)C4CC[C@]23C)C1` (stereo partly drawn) [Compound 3, 4β-hydroxywithanolide E], the inhibition at 50 µM in series [1] (setting [7]) came out at 99.5 ± 0.1%; in series [3] (RAW264.7, 20 h), 99.2 ± 0.4%. Further, the IC50 in series [1] (setting [8]) is 0.04 ± 0.03 µM; in series [3] (setting [9]), 0.32 ± 0.02 µM; in series [6], 0.9 µM. Also, the “NF-κB assay % surv.” value in series [2] (human, 6 h, 50 µM) was found to be 88.6 ± 10.1%. For the same molecule, in series [4], the IC50 at 20 h is 14 µM. For the same molecule, the “Nitrite assay % surv.” value in series [5] is recorded as 50.1 ± 2.3%.
Regarding `CC(=O)O[C@H]1C=CC(=O)[C@]2(C)C3CC[C@]4(C)[C@](O)([C@@](C)(O)C5CC(C)=C(C)C(=O)O5)CC[C@@]4(O)C3C[C@H]3O[C@]132` (stereo partly shown) [Compound 3a], the inhibition at 50 µM in series [1] (setting [7]) worked out at 99.9 ± 0.9%; in series [3] (RAW264.7, 20 h), 99.2 ± 0.4%. For the same molecule, the IC50 worked out at 0.47 ± 0.61 µM in series [1] (setting [8]) and 0.24 ± 0.01 µM in series [3] (setting [9]). In series [2] (human, 6 h, 50 µM), the “NF-κB assay % surv.” value is on record as 2.2 ± 2.6%. Further, in series [3], the “NO inhibitory activity” value is “most active”. For the same molecule, the IC50 at 20 h in series [4] stood at 2.1 µM. In addition, in series [5], the “Nitrite assay % surv.” value was 38.9 ± 2.3%.
`CO[C@H]1CC(=O)[C@]2(C)C3CC[C@@]4(C)C(=C3C[C@H]3O[C@]32[C@H]1OC(C)=O)CC[C@@]4(O)[C@@](C)(O)C1CC(C)=C(C)C(=O)O1` (stereo partly shown) [Compound 4a]: the inhibition at 50 µM in series [1] (HEK293, 6 h) was 88 ± 1.3%; in series [3] (setting [13]), 99.8 ± 0.3%. Also, the IC50 in series [1] (setting [10]) was found to be 0.33 ± 0.1 µM; in series [3] (setting [14]), 0.24 ± 0.01 µM. The “NF-κB activity enhanced relative to parent compound” value in series [1] (setting [11]) is given as “over 30 fold”. For the same molecule, in series [2] (setting [12]), the “NF-κB assay % surv.” value amounted to 77.7 ± 5.3%. In addition, in series [3], the “NO inhibitory activity” value is “most active”. In series [5], the “Nitrite assay % surv.” value was 40.3 ± 4.1%.
For the molecule `CC(=O)OC1C[C@H](OC(C)=O)CC2=CCC3C4CCC([C@@](C)(O)[C@@H](C[C@@H]5COC(=O)[C@@]5(C)O)OC(C)=O)[C@@]4(C)CCC3[C@]21C` (stereo partly shown) [Compound 6a], the inhibition at 50 µM was determined as 77.4 ± 7.3% in series [1] (setting [7]) and 20.6 ± 3% in series [3] (RAW264.7, 20 h). For the same molecule, in series [1] (setting [8]), the IC50 was 10.5 ± 2.55 µM. Besides, the “NF-κB activity diminished relative to parent compound” value in series [1] (setting [11]) is on record as “about 10 fold”. Besides, in series [2] (human, 6 h, 50 µM), the “NF-κB assay % surv.” value worked out at 21.8 ± 0.8%. In series [5], the “Nitrite assay % surv.” value was determined as 92.0 ± 5.0%.
`CO[C@H]1CC(=O)[C@]2(C)C3CC[C@@]4(C)C(=C3C[C@H]3O[C@]32[C@H]1O)CC[C@@]4(O)[C@@](C)(O)C1CC(C)=C(C)C(=O)O1` (stereo partly shown) [Compound 4, physalactone]: the inhibition at 50 µM turned out to be 66.7 ± 3.9% in series [1] (HEK293, 6 h) and 97.9 ± 2% in series [3] (setting [13]). For the same molecule, the IC50 in series [1] (setting [10]) was determined as 11 ± 2.3 µM; in series [3] (setting [14]) it was 1.8 ± 0.17 µM. For the same molecule, the “NF-κB assay % surv.” value in series [2] (setting [12]) amounted to 100.0 ± 16.6%. For the same molecule, the “Nitrite assay % surv.” value in series [5] turned out to be 90.7 ± 5.0%. Further, the “cytotoxicity in NO assay” value in series [5] (RAW 264.7 cells) is given as “without significant cytotoxicity”.
In the case of `CC1=C(C)C(=O)OC(C(C)(O)C2(O)CC(O)C3(O)C4CC(O)C5(O)CC=CC(=O)C5(C)C4CCC32C)C1` (stereo not shown) [Compound 8, coagulin H], the inhibition at 50 µM in series [1] (setting [7]) worked out at 70.2 ± 8.1%; in series [3] (RAW264.7, 20 h) it was 67.1 ± 2.2%. For the same molecule, the half-maximal inhibitory concentration (IC50) stood at 8.9 ± 1.1 µM in series [1] (setting [8]) and 16.7 ± 0.4 µM in series [3] (setting [9]). Further, the “NF-κB assay % surv.” value in series [2] (human, 6 h, 50 µM) is given as 82.2 ± 3.9%. In addition, the “Nitrite assay % surv.” value in series [5] was 100.0 ± 6.3%.
